pEC50: −log10 of the molar value.
Each compound was assayed against T1, human 5HT2c receptor (INI isoform) (Homo sapiens, UniProt P28335) (assay: Phosphotidyl Inositol Turnover Assay (IP-One Tb kit), agonist potency). Conditions: not given.
T1 sequence (P28335 33-458): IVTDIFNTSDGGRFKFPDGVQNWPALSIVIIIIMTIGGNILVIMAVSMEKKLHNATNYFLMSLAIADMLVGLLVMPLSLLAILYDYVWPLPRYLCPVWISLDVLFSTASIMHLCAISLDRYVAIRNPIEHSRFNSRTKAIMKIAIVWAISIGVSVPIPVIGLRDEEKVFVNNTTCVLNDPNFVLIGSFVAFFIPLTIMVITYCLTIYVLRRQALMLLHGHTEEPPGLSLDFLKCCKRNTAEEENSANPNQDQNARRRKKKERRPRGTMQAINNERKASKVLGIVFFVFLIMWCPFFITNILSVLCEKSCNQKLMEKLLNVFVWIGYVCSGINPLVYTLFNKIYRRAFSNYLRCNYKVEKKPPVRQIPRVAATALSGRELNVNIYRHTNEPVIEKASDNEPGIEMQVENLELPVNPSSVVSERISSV
Format: cell-based

How did the pEC50 turn out when c1cc2c(c3c1CCC3)CCNCC2 [Example 1, 1,2,3,6,7,8,9,10-Octahydro-8-aza-cyclohepta[e]indene] was run?
The pEC50 was over 8.00.

How did the pEC50 turn out when CC1CCc2ccc3c(c21)CCNCC3 (stereo not shown) [Example 2, 1-Methyl-1,2,3,6,7,8,9,10-octahydro-8-aza-cyclohepta[e]indene] was run?
The pEC50 was over 8.00.

How did the pEC50 turn out when CCC1CCc2ccc3c(c21)CCNCC3 (stereo not shown) [Example 3, 1-Ethyl-1,2,3,6,7,8,9,10-octahydro-8-aza-cyclohepta[e]indene] was run?
The pEC50 was over 8.00.

How did the pEC50 turn out when CCCC1CCc2ccc3c(c21)CCNCC3 (stereo not shown) [Example 5, 1-Propyl-1,2,3,6,7,8,9,10-octahydro-8-aza-cyclohepta[e]indene] was run?
The pEC50 was over 8.00.

How did the pEC50 turn out when CCC1CCc2c(Cl)cc3c(c21)CCNCC3 (stereo not shown) [Example 6, 4-Chloro-1-ethyl-1,2,3,6,7,8,9,10-octahydro-8-aza-cyclohepta[e]indene] was run?
The pEC50 was over 8.00.

With CCC1CCc2c(I)cc3c(c21)CCNCC3 (stereo not shown) [Example 7, 1-Ethyl-4-iodo-1,2,3,6,7,8,9,10-octahydro-8-aza-cyclohepta[e]indene] as the compound, how does the pEC50 read?
The pEC50 was over 8.00.

How did the pEC50 turn out when CCC1CCc2c(F)cc3c(c21)CCNCC3 (stereo not shown) [Example 8, 1-Ethyl-4-fluoro-1,2,3,6,7,8,9,10-octahydro-8-aza-cyclohepta[e]indene] was run?
The pEC50 was over 8.00.

With Clc1cc2c(c3c1CCC3c1ccccc1)CCNCC2 (stereo not shown) [Example 10, 4-Chloro-1-phenyl-1,2,3,6,7,8,9,10-octahydro-8-aza-cyclohepta[e]indene] as the compound, how does the pEC50 read?
The pEC50 was over 8.00.

How did the pEC50 turn out when CC1(C)CCc2ccc3c(c21)CCNCC3 [Example 13, 1,1-Dimethyl-1,2,3,6,7,8,9,10-octahydro-8-aza-cyclohepta[e]indene] was run?
Its pEC50 is over 8.00.

How did the pEC50 turn out when CCC1c2c(ccc3c2CCNCC3)CC1(F)F (stereo not shown) [Example 31, 1-Ethyl-2,2-difluoro-1,2,3,6,7,8,9,10-octahydro-8-aza-cyclohepta[e]indene] was run?
The pEC50 was over 8.00.

CC1c2c(ccc3c2CCNCC3)CC1(F)F (stereo not shown) [Example 32, 2,2-Difluoro-1-methyl-1,2,3,6,7,8,9,10-octahydro-8-aza-cyclohepta[e]indene] was tested. Which pEC50 did it give?
Its pEC50 is over 8.00.

How did the pEC50 turn out when CC1(C)c2c(ccc3c2CCNCC3)CC1(F)F [Example 34, 2,2-Difluoro-1,1-dimethyl-1,2,3,6,7,8,9,10-octahydro-8-aza-cyclohepta[e]indene] was run?
The pEC50 was over 8.00.

How did the pEC50 turn out when CC1(C)CCc2c(-c3ccccc3)cc3c(c21)CCNCC3 [Example 35, 1,1-Dimethyl-4-phenyl-1,2,3,6,7,8,9,10-octahydro-8-aza-cyclohepta[e]indene] was run?
The pEC50 was over 6.00.

How did the pEC50 turn out when CCC1COc2ccc3c(c21)CCNCC3 (stereo not shown) [Example 36, 1-Ethyl-1,2,7,8,9,10-hexahydro-6H-3-oxa-8-aza-cyclohepta[e]indene] was run?
The pEC50 was over 8.00.

With CCC1CCOc2ccc3c(c21)CCNCC3 (stereo not shown) [Example 37, 1-Ethyl-2,3,8,9,10,11-hexahydro-1H,7H-4-oxa-9-aza-cyclohepta[a]naphthalene] as the compound, how does the pEC50 read?
The pEC50 was over 8.00.

COC1c2c(ccc3c2CCNCC3)CC1(F)F (stereo not shown) [Example 38, 2,2-Difluoro-1-methoxy-1,2,3,6,7,8,9,10-octahydro-8-aza-cyclohepta[e]indene] was tested. Which pEC50 did it give?
Its pEC50 is over 8.00.

With CCOC1c2c(ccc3c2CCNCC3)CC1(F)F (stereo not shown) [Example 41, 1-Ethoxy-2,2-difluoro-1,2,3,6,7,8,9,10-octahydro-8-aza-cyclohepta[e]indene] as the compound, how does the pEC50 read?
Its pEC50 is over 8.00.

FC1(F)Cc2ccc3c(c2C1)CCNCC3 [Example 42, 2,2-Difluoro-1,2,3,6,7,8,9,10-octahydro-8-aza-cyclohepta[e]indene] was tested. Which pEC50 did it give?
The pEC50 was over 8.00.

COC1CCc2ccc3c(c21)CCNCC3 (stereo not shown) [Example 43, 1-Methoxy-1,2,3,6,7,8,9,10-octahydro-8-aza-cyclohepta[e]indene] was tested. Which pEC50 did it give?
The pEC50 was over 8.00.

Same assay, conditions: 5-HT2c PI turnover potency of the more active isomer (where applicable); HEK 293 EBNA cells expressing INI isoform of human 5HT2c receptor; read-out: Potency at 5HT2c (INI isoform)

With c1cc2c(c3c1CCNCC3)C(C1CC1)CC2 (stereo not shown) [Example 4, 1-Cyclopropyl-1,2,3,6,7,8,9,10-octahydro-8-aza-cyclohepta[e]indene] as the compound, how does the pEC50 read?
Its pEC50 is over 8.00.

c1ccc(C2CCc3ccc4c(c32)CCNCC4)cc1 (stereo not shown) [Example 9, 1-Phenyl-1,2,3,6,7,8,9,10-octahydro-8-aza-cyclohepta[e]indene] was tested. Which pEC50 did it give?
Its pEC50 is over 8.00.

c1cncc(C2CCc3ccc4c(c32)CCNCC4)c1 (stereo not shown) [Example 11, 1-Pyridin-3-yl-1,2,3,6,7,8,9,10-octahydro-8-aza-cyclohepta[e]indene] was tested. Which pEC50 did it give?
The pEC50 was over 8.00.

Fc1cc2c(c3c1CCC3c1cccnc1)CCNCC2 (stereo not shown) [Example 12, 4-Fluoro-1-pyridin-3-yl-1,2,3,6,7,8,9,10-octahydro-8-aza-cyclohepta[e]indene] was tested. Which pEC50 did it give?
Its pEC50 is over 8.00.

How did the pEC50 turn out when FC1(F)Cc2ccc3c(c2C1c1ccccc1)CCNCC3 (stereo not shown) [Example 14, 2,2-Difluoro-1-phenyl-1,2,3,6,7,8,9,10-octahydro-8-aza-cyclohepta[e]indene] was run?
The pEC50 was over 8.00.

Cc1ccccc1C1c2c(ccc3c2CCNCC3)CC1(F)F (stereo not shown) [Example 15, 2,2-Difluoro-1-o-tolyl-1,2,3,6,7,8,9,10-octahydro-8-aza-cyclohepta[e]indene] was tested. Which pEC50 did it give?
The pEC50 was over 8.00.

How did the pEC50 turn out when Cc1cccc(C2c3c(ccc4c3CCNCC4)CC2(F)F)c1 (stereo not shown) [Example 16, 2,2-Difluoro-1-m-tolyl-1,2,3,6,7,8,9,10-octahydro-8-aza-cyclohepta[e]indene] was run?
Its pEC50 is over 8.00.

Cc1ccc(C2c3c(ccc4c3CCNCC4)CC2(F)F)cc1 (stereo not shown) [Example 17, 2,2-Difluoro-1-p-tolyl-1,2,3,6,7,8,9,10-octahydro-8-aza-cyclohepta[e]indene] was tested. Which pEC50 did it give?
The pEC50 was over 7.00.

With FC(F)(F)c1cccc(C2c3c(ccc4c3CCNCC4)CC2(F)F)c1 (stereo not shown) [Example 18, 2,2-Difluoro-1-(3-trifluoromethyl-phenyl)-1,2,3,6,7,8,9,10-octahydro-8-aza-cyclohepta[e]indene] as the compound, how does the pEC50 read?
Its pEC50 is over 8.00.

With FC(F)(F)Oc1cccc(C2c3c(ccc4c3CCNCC4)CC2(F)F)c1 (stereo not shown) [Example 19, 2,2-Difluoro-1-(3-trifluoromethoxy-phenyl)-1,2,3,6,7,8,9,10-octahydro-8-aza-cyclohepta[e]indene] as the compound, how does the pEC50 read?
Its pEC50 is over 8.00.

With Fc1ccc(C2c3c(ccc4c3CCNCC4)CC2(F)F)cc1 (stereo not shown) [Example 20, 2,2-Difluoro-1-(4-fluoro-phenyl)-1,2,3,6,7,8,9,10-octahydro-8-aza-cyclohepta[e]indene] as the compound, how does the pEC50 read?
Its pEC50 is over 8.00.

How did the pEC50 turn out when Fc1cccc(C2c3c(ccc4c3CCNCC4)CC2(F)F)c1 (stereo not shown) [Example 21, 2,2-Difluoro-1-(3-fluoro-phenyl)-1,2,3,6,7,8,9,10-octahydro-8-aza-cyclohepta[e]indene] was run?
The pEC50 was over 8.00.

How did the pEC50 turn out when FC1(F)Cc2ccc3c(c2C1C1CC1)CCNCC3 (stereo not shown) [Example 22, 1-Cyclopropyl-2,2-difluoro-1,2,3,6,7,8,9,10-octahydro-8-aza-cyclohepta[e]indene] was run?
Its pEC50 is over 8.00.

With FC1(F)Cc2ccc3c(c2C1c1cccc(Cl)c1)CCNCC3 (stereo not shown) [Example 23, 1-(3-Chloro-phenyl)-2,2-difluoro-1,2,3,6,7,8,9,10-octahydro-8-aza-cyclohepta[e]indene] as the compound, how does the pEC50 read?
Its pEC50 is over 8.00.

FC1(F)Cc2ccc3c(c2C1c1ccc(Cl)cc1)CCNCC3 (stereo not shown) [Example 24, 1-(4-Chloro-phenyl)-2,2-difluoro-1,2,3,6,7,8,9,10-octahydro-8-aza-cyclohepta[e]indene] was tested. Which pEC50 did it give?
Its pEC50 is over 8.00.

COc1ccccc1C1c2c(ccc3c2CCNCC3)CC1(F)F (stereo not shown) [Example 25, 2,2-Difluoro-1-(2-methoxy-phenyl)-1,2,3,6,7,8,9,10-octahydro-8-aza-cyclohepta[e]indene] was tested. Which pEC50 did it give?
The pEC50 was over 8.00.

With COc1cccc(C2c3c(ccc4c3CCNCC4)CC2(F)F)c1 (stereo not shown) [Example 26, 2,2-Difluoro-1-(3-methoxy-phenyl)-1,2,3,6,7,8,9,10-octahydro-8-aza-cyclohepta[e]indene] as the compound, how does the pEC50 read?
The pEC50 was over 8.00.

With COc1ccc(C2c3c(ccc4c3CCNCC4)CC2(F)F)cc1 (stereo not shown) [Example 27, 2,2-Difluoro-1-(4-methoxy-phenyl)-1,2,3,6,7,8,9,10-octahydro-8-aza-cyclohepta[e]indene] as the compound, how does the pEC50 read?
Its pEC50 is over 7.00.

How did the pEC50 turn out when FC1(F)Cc2ccc3c(c2C1c1cccnc1)CCNCC3 (stereo not shown) [Example 28, 2,2-Difluoro-1-pyridin-3-yl-1,2,3,6,7,8,9,10-octahydro-8-aza-cyclohepta[e]indene] was run?
Its pEC50 is over 8.00.

How did the pEC50 turn out when FC1(F)Cc2ccc3c(c2C1c1ccncc1)CCNCC3 (stereo not shown) [Example 29, 2,2-Difluoro-1-pyridin-4-yl-1,2,3,6,7,8,9,10-octahydro-8-aza-cyclohepta[e]indene] was run?
The pEC50 was over 6.00.

FC1(F)Cc2c(Cl)cc3c(c2C1c1cccnc1)CCNCC3 (stereo not shown) [Example 30, 4-Chloro-2,2-difluoro-1-pyridin-3-yl-1,2,3,6,7,8,9,10-octahydro-8-aza-cyclohepta[e]indene] was tested. Which pEC50 did it give?
The pEC50 was over 8.00.

How did the pEC50 turn out when FC1(F)Cc2ccc3c(c2C1Cc1ccccc1)CCNCC3 (stereo not shown) [Example 33, 1-Benzyl-2,2-difluoro-1,2,3,6,7,8,9,10-octahydro-8-aza-cyclohepta[e]indene] was run?
The pEC50 was over 8.00.

With c1ccc(-c2coc3ccc4c(c23)CCNCC4)cc1 [Example 39, 1-Phenyl-7,8,9,10-tetrahydro-6H-3-oxa-8-aza-cyclohepta[e]indene] as the compound, how does the pEC50 read?
The pEC50 was over 8.00.

With c1csc(C2CCc3ccc4c(c32)CCNCC4)n1 (stereo not shown) [Example 40, 1-Thiazol-2-yl-1,2,3,6,7,8,9,10-octahydro-8-aza-cyclohepta[e]indene] as the compound, how does the pEC50 read?
Its pEC50 is over 8.00.

From patent US9284277B2, “Benzazepines as serotonin 5-HT2C receptor ligands and uses thereof” (ABT Holding Company, priority 2012, dated 2016)
